Data taken from patent publication US20230148599A1, “FUNGICIDAL MIXTURES CONTAINING PYRAZOLE DERIVATIVES” (FMC Corporation, priority 2020, published 2023).

Assays:
Type in all cases: in vivo
Alternaria solani = experiment: Test F: tomato early blight, preventive spray on tomato seedlings; conditions: 120 h, 100 = 100% disease control, 0 = no control, read-out: Test F disease control rating
Description: (§1) General protocol for preparing test suspensions for Tests A-F: the test compounds were first dissolved in acetone in an amount equal to 3% of the final volume and then suspended at the desired concentration (in ppm) in acetone and purified water (50/50 mix by volume) containing 250 ppm of the surfactant PEG400 (polyhydric alcohol esters). The resulting test suspensions were then used in Tests A-F.
(§2) The test suspension was sprayed to the point of run-off on tomato seedlings. The following day the seedlings were inoculated with a spore suspension of Alternaria solani (the causal agent of tomato early blight) and incubated in a saturated atmosphere at 27° C. for 48 h, and then moved to a growth chamber at 20° C. for 3 days, after which time visual disease ratings were made.
(§3) A rating of 100 indicates 100% disease control and a rating of 0 indicates no disease control (relative to the controls). A dash (−) indicates the compound was not tested.

Botrytis cinerea = experiment: Test E: tomato Botrytis, preventive spray on tomato seedlings; conditions: 120 h, 100 = 100% disease control, 0 = no control, read-out: Test E disease control rating
Description: as §1
as §2, with “Botrytis cinerea” for “Alternaria solani”, “Botrytis)” for “early blight)”, “20°” for “27°”, “24°” for “20°”
as §3

[1] = test system: Puccinia recondita f. sp. tritici; experiment: Test B: wheat leaf rust, preventive spray on wheat seedlings; conditions: 192 h, 100 = 100% disease control, 0 = no control, read-out: Test B disease control rating
Description: as §1
The test solution was sprayed to the point of run-off on wheat seedlings. The following day the seedlings were inoculated with a spore suspension of Puccinia recondita f. sp. tritici (the causal agent of wheat leaf rust) and incubated in a saturated atmosphere at 20° C. for 24 h, and then moved to a growth chamber at 20° C. for 7 days, after which time disease ratings were made.
as §3

Septoria tritici = experiment: Test A: wheat leaf blotch, preventive spray on wheat seedlings; conditions: Zymoseptoria tritici, 456 h, 100 = 100% disease control, 0 = no control, read-out: Test A disease control rating
Description: as §1
The test solution was sprayed to the point of run-off on wheat seedlings. The following day the seedlings were inoculated with a spore suspension of Septoria tritici (the causal agent of wheat leaf blotch) and incubated in a saturated atmosphere at 24° C. for 48 h, and then moved to a growth chamber at 20° C. for 17 days, after which time disease ratings were made.
as §3

Phakopsora pachyrhizi = experiment: Test D: Asian soybean rust, preventive spray on soybean seedlings; conditions: 216 h, 100 = 100% disease control, 0 = no control, read-out: Test D disease control rating
Description: as §1
The test solution was sprayed to the point of run-off on soybean seedlings. The following day the seedlings were inoculated with a spore suspension of Phakopsora pachyrhizi (the causal agent of Asian soybean rust) and incubated in a saturated atmosphere at 22° C. for 24 h and then moved to a growth chamber at 22° C. for 8 days, after which time visual disease ratings were made.
as §3

| Structure (SMILES) | pest or weed control at 50 ppm (Alternaria solani) [%] | pest or weed control at 50 ppm (Botrytis cinerea) [%] | pest or weed control at 50 ppm [1] [%] | pest or weed control at 50 ppm (Septoria tritici) [%] | pest or weed control at 50 ppm (Phakopsora pachyrhizi) [%] | pest or weed control at 10 ppm (Alternaria solani) [%] | pest or weed control at 10 ppm (Botrytis cinerea) [%] | pest or weed control at 10 ppm [1] [%] | pest or weed control at 10 ppm (Septoria tritici) [%] | pest or weed control at 10 ppm (Phakopsora pachyrhizi) [%] |
| --- | --- | --- | --- | --- | --- | --- | --- | --- | --- | --- |
| Cc1nn(C)c(Nc2c(F)cccc2[N+](=O)[O-])c1-c1c(F)cc(F)cc1Br [Compound 1, 4-(2-bromo-4,6-difluorophenyl)-N-(2-fluoro-6-nitrophenyl)-1,3-dimethyl-1H-pyrazol-5-amine] | 99 | 100 | 100 | 100 | 84 |  |  |  |  |  |
| Cc1cc(F)c(Nc2c(-c3ccc(C#N)cc3Cl)c(C)nn2C)c([N+](=O)[O-])c1 [Compound 127, 3-chloro-4-[5-[(2-fluoro-4-methyl-6-nitrophenyl)amino]-1,3-dimethyl-1H-pyrazol-4-yl]benzonitrile] | 100 | 100 | 99 | 100 | 96 |  |  |  |  |  |
| Cc1cc(F)c(Nc2c(-c3ccc(F)cc3Cl)c(C)nn2C)c([N+](=O)[O-])c1 [Compound 93, 4-(2-chloro-4-fluorophenyl)-N-(2-fluoro-4-methyl-6-nitrophenyl)-1,3-dimethyl-1H-pyrazol-5-amine] | 99 | 100 | 100 | 100 | 100 | 99 | 99 | 100 | 99 | 87 |
| Cc1nn(C)c(Nc2c(Cl)cc(F)cc2[N+](=O)[O-])c1-c1ccc(F)cc1Cl [Compound 19, N-(2-chloro-4-fluoro-6-nitrophenyl)-4-(2-chloro-4-fluorophenyl)-1,3-dimethyl-1H-pyrazol-5-amine] | 99 | 100 | 100 | 100 | 98 |  |  |  |  |  |
| CCc1nn(C)c(Nc2c(F)cccc2[N+](=O)[O-])c1-c1ccc(F)cc1Cl [Compound 72, 4-(2-chloro-4-fluorophenyl)-N-(2-fluoro-6-nitrophenyl)-3-ethyl-1-methyl-1H-pyrazol-5-amine] | 99 | 98 | 100 | 100 | 31 | 63 | 98 | 85 | 100 | 12 |
| Cc1nn(C)c(N(C)c2c(F)cccc2[N+](=O)[O-])c1-c1ccc(F)cc1Cl [Compound 172] | 40 | 99 | 100 | 100 | 0 |  |  |  |  |  |
| Cc1nn(C)c(Nc2c(F)cc(Br)cc2[N+](=O)[O-])c1-c1ccc(F)cc1Cl [Compound 61, N-(4-bromo-2-fluoro-6-nitrophenyl)-4-(2-chloro-4-fluorophenyl)-1,3-dimethyl-1H-pyrazol-5-amine] | 99 | 99 | 100 | 100 | 84 |  |  |  |  |  |
| COc1ccc(-c2c(C)nn(C)c2Nc2c(Cl)cc(F)cc2[N+](=O)[O-])c(Cl)c1 [Compound 73, N-(2-chloro-4-fluoro-6-nitrophenyl)-4-(2-chloro-4-methoxyphenyl)-1,3-dimethyl-1H-pyrazol-5-amine] | 97 | 99 | 100 | 100 | 98 |  |  |  |  |  |
| Cc1nn(C)c(Nc2c(F)cccc2[N+](=O)[O-])c1-c1ccc(C#N)cc1Cl [Compound 113, 3-chloro-4-[5-[(2-fluoro-6-nitrophenyl)amino]-1,3-dimethyl-1H-pyrazol-4-yl]benzonitrile] | 99 | 99 | 99 | 100 | 13 |  |  |  |  |  |
| Cc1nn(C)c(Nc2c(F)cccc2[N+](=O)[O-])c1-c1c(F)cc(F)cc1Cl [Compound 68, 4-(2-chloro-4,6-difluorophenyl)-N-(2-fluoro-6-nitrophenyl)-1,3-dimethyl-1H-pyrazol-5-amine] | 99 | 100 | 100 | 100 | 99 | 98 | 100 | 100 | 100 | 32 |
| Cc1nn(C)c(Nc2c(F)cccc2[N+](=O)[O-])c1-c1ccc(F)cc1F [Compound 118, 4-(2,4-difluorophenyl)-N-(2-fluoro-6-nitrophenyl)-1,3-dimethyl-1H-pyrazol-5-amine] | 99 | 100 | 100 | 100 | 0 | 60 | 99 | 80 | 100 | 0 |
| Cc1nn(C)c(Nc2c(Cl)cc(F)cc2[N+](=O)[O-])c1-c1ccc(C#N)cc1Cl [Compound 18, 3-chloro-4-[5-[(2-chloro-4-fluoro-6-nitrophenyl)amino]-1,3-dimethyl-1H-pyrazol-4-yl]benzonitrile] | 99 | 100 | 100 | 100 | 92 |  |  |  |  |  |
| Cc1nn(C)c(Nc2ccc(F)cc2[N+](=O)[O-])c1-c1ccc(F)cc1Cl [Compound 111, 4-(2-chloro-4-fluorophenyl)-N-(4-fluoro-2-nitrophenyl)-1,3-dimethyl-1H-pyrazol-5-amine] | 93 | 100 | 99 | 100 | 0 |  |  |  |  |  |
| Cc1nn(C)c(Nc2c(F)cccc2[N+](=O)[O-])c1-c1ccc(F)cc1Br [Compound 60, 4-(2-bromo-4-fluorophenyl)-N-(2-fluoro-6-nitrophenyl)-1,3-dimethyl-1H-pyrazol-5-amine] | 99 | 99 | 100 | 100 | 97 | 75 | 99 | 100 | 99 | 0 |
| COc1cc(F)c(Nc2c(-c3c(F)cccc3Cl)c(C)nn2C)c([N+](=O)[O-])c1 [Compound 23, 4-(2-chloro-6-fluorophenyl)-N-(2-fluoro-4-methoxy-6-nitrophenyl)-1,3-dimethyl-1H-pyrazol-5-amine] | 99 | 97 | 100 | 100 | 99 |  |  |  |  |  |
| Cc1nn(C)c(Nc2c(F)cc(Cl)cc2[N+](=O)[O-])c1-c1ccc(F)cc1Cl [Compound 121, N-(4-chloro-2-fluoro-6-nitrophenyl)-4-(2-chloro-4-fluorophenyl)-1,3-dimethyl-1H-pyrazol-5-amine] | 100 | 100 | 100 | 100 | 99 |  |  |  |  |  |
